Test system: S-opsin, M-opsin, L-opsin
Test: Quantitative PCR of S-opsin, M-opsin, L-opsin after maturation culture in serum-free medium
Type: cell-based, human
Details: T3 added (0-8 nM) in serum-free DMEM/F12 after about day 190, not less than 30 days
Experimental: By a method similar to the methods described in Example 1 and Example 3, a cell aggregate containing a retinal tissue in a differentiation stage matured to the level that Muller cell was observed was prepared and culture was performed, in the serum-containing medium used, up to about day 190 to give a retinal tissue in a differentiation stage matured to the level that Muller cell was observed. Thereafter, by a method similar to the methods described in Example 11 and 12, further maturation was performed. That is, 0-1.35 nM BMP4 and 0-8 nM T3 were added to a medium obtained by adding 1% N2 supplement and 100 μM taurine but not adding 10% fetal calf serum to DMEM/F12 medium containing glutamic acid as a component, and culture was performed for not less than 30 days from the start of culture for further maturation. A cell aggregate containing a retinal tissue was recovered, quantitatively PCR was performed according to a conventional method, and the expression levels of S-opsin, M-opsin, L-opsin were confirmed. As a result, irrespective of the presence or absence of BMP4, the expression of S-opsin was promoted when T3 was absent.

N[C@@H](Cc1cc(I)c(Oc2ccc(O)c(I)c2)c(I)c1)C(=O)O [T3, triodo-I-thyronine]
expression of S-opsin: suppressed

Reference: patent publication US20200277571A1, “METHOD FOR AMPLIFYING CONE PHOTORECEPTORS OR ROD PHOTORECEPTORS USING DORSALIZATION SIGNAL TRANSMITTER OR VENTRALIZATION SIGNAL TRANSMITTER” (RIKEN, priority 2017, published 2020)
